Positions count from the first letter of the chain named.
What was measured:
AncMsPFK [1] = molecular target: T1, AncMsPFK (synthetic construct, UniProt Z9Y5W3ZEF0); assay: X-ray crystallography, […] Å; type: binding; settings: closed conformation
T1 construct: synthetic gene in pET-15, N-terminal polyhistidine tag, E. coli BL21; heat step and Ni-Sepharose; 490 residues expected, one molecule per asymmetric unit
T1 sequence (Z9Y5W3ZEF0 22-511): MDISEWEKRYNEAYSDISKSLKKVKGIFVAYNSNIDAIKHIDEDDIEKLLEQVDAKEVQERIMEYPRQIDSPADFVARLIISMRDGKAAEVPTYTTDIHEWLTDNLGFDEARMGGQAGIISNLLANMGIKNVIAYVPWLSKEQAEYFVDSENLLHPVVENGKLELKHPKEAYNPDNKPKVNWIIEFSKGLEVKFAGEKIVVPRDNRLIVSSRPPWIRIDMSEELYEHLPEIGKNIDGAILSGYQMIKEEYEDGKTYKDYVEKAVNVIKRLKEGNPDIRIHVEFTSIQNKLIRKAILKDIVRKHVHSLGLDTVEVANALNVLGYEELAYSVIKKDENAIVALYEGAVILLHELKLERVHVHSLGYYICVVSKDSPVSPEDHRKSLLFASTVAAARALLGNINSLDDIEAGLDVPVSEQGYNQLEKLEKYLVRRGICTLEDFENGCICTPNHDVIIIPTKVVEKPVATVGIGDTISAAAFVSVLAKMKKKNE

AncMsPFK [2] = molecular target: T2, AncMsPFK (synthetic construct, UniProt Z9Y5W3ZEF0, E111A); assay: coupled NADH oxidation assay, […] nm; type: biochemical; settings: 1 mM ADP, 2 mM MgCl2, 100 mM Pipes pH 6.5, 25 °C; substrate inhibition fit
T2 construct: synthetic gene in pET-15, N-terminal polyhistidine tag, E. coli BL21; heat step and Ni-Sepharose; 490 residues expected, one molecule per asymmetric unit
T2 sequence (Z9Y5W3ZEF0 22-511 E111A): T1 sequence (Z9Y5W3ZEF0 22-511) with E90A

AncMsPFK [3] = molecular target: T1, AncMsPFK; assay: coupled NADH oxidation assay, […] nm; type: biochemical; settings: 1 mM ADP, 2 mM MgCl2, 100 mM Pipes pH 6.5, 25 °C

| F6P / KM mM (AncMsPFK [2]) | F6P / KM mM (AncMsPFK [3]) | Compound | X-ray crystallography, 3.12 Å (AncMsPFK [1]; ternary complex with F6P and Mg2+, nucleotide site) | X-ray crystallography, 3.12 Å (AncMsPFK [1]; ternary complex with Mg-ADPβS, active site) |
| --- | --- | --- | --- | --- |
| – | – | Nc1ncnc2c1ncn2[C@@H]1O[C@H](COP(=O)(O)OP(=O)(O)S)[C@@H](O)[C@H]1O (stereo partly shown) [ADPβS] | The structure of the AncMsPFK in complex with F6P-Mg-ADPβS was solved by molecular replacement | – |
| 0.09 ± 9.6 × 10^−3 mM | 0.014 ± 1.5 × 10^−3 mM | O=P(O)(O)OC[C@H]1OC(O)(CO)[C@@H](O)[C@@H]1O (stereo partly shown) [F6P] | – | The structure of the AncMsPFK in complex with F6P-Mg-ADPβS was solved by molecular replacement |

From paper PMC7948494, “Structure of an ancestral ADP-dependent kinase with fructose-6P reveals key residues for binding, catalysis, and ligand-induced conformational changes” (The Journal of Biological Chemistry, 2020)
